A value given as a limit tells only on which side of the number the result lay.

The experiment deals with BaF3 BRAF-KIAA1549 fusion cells. The experiment can be described thus: BaF3 BRAF-KIAA1549 fusion cell proliferation assay. The class given is cell-based. As to conditions: Mus musculus, BaF3, 96 h, read-out: IC50, inhibition of cell growth, BaF3-BRAF:KIAA1549 Fusion. The protocol: Retroviral Production: The BRAF-KIAA1549 fusion mutant was subcloned into pMXs-IRES-Blasticidin (RTV-016, Cell Biolabs, San Diego, CA). […]. Briefly, HEK 293T cells were plated in Poly-D-lysine coated 6-well plate (2.5×10^5 cells per well) and incubated overnight. The next day, retroviral plasmids (1 μg of BRAF-KIAA fusion mutant, 0.32 μg of pCMV-Gag-Pol and 0.165 μg pCMV-VSV-G) were mixed in 300 μL of Optimem (31985, Life Technologies). The mixture was incubated at room temperature for 5 minutes and then added to Optimem containing transfection reagent Lipofectamine (11668, Invitrogen) and incubated for 20 minutes. The mixture was then added dropwise to HEK 293T cells. The next day the medium was replaced with fresh culture medium and retrovirus was harvested at 24 hours.
Generation of BRAF-KIAA1549 fusion stable cell line: BaF3 cells were plated in V-bottom 96 well plate (COSTAR #3894) in 80 μL of RPMI/10% FBS and 0.01 ng/mL mouse IL-3, supplemented with 8 μg/mL polybrene (4×10^4 cells/well). Cells were transduced with 20 μL of BRAF-KIAA1549 fusion viral supernatant by centrifuging for 30 minutes at 1000 rpm. Cells were placed in a 37 °C incubator overnight. Next day 100 μL of RPMI/10% FBS and 0.01 ng/mL mouse IL-3 was added. After 24 hours, 100 μL of cells were transferred to a 24 well plate containing 900 μL of RPMI/10% FBS and 15 μg/mL Blasticidin. Contents of the 24 well plate were sampled for cell viability via CellTiterGlo (Promega) over a 2-week period.
Assay for cell proliferation: BaF3 BRAF-KIAA1549 fusion cells were resuspended at 1.5×10^5 c/mL in RPMI containing 10% Heat Inactivated FBS, 1% L-glutamine and dispensed in duplicate ([…]) into 384 well plates. To determine the effect of compound on cell proliferation, BaF3 BRAF-KIAA1549 fusion cells were incubated for 96 hours in the presence of vehicle control (DMSO) or compound at varying concentrations. Inhibition of cell growth was determined by luminescent quantification (Envision by Perkin Elmer) of intracellular ATP content using CellTiterGlo (Promega), according to the protocol provided by the manufacturer. To determine the IC50 values, the vehicle-treated cells were normalized as viable cells and analyzed using the CDD Vault, Collaborative Drug Discovery, Burlingame, CA (the Levenberg-Marquardt algorithm; Levenberg, K, […]; Marquardt, D., 1963).
Table A assigns each compound a code for potency in the BaF3 BRAF-KIAA1549 fusion cell proliferation assay: A, B, C, or D. According to the code, A represents an IC50 value<20 nM; B represents an IC50 value≥20 nM and <100 nM; C represents an IC50 value≥100 nM and <500 nM; and D represents an IC50 value≥500 nM.

In general, IC50 refers to the concentration that inhibits the measured activity by half. Take `CNc1cc2ncc(-c3cc(NC(=O)c4cc(C(F)(F)F)ccn4)ccc3C)cc2cn1` [compound 1]: the IC50 was less than 0.02 µM.
Consider `CNc1cc2ncc(-c3cc(NC(=O)c4ccnc(C(F)(F)F)c4)ccc3C)cc2cn1` [compound 2], for which the half-inhibitory concentration (IC50) lay in the range of 0.02 to 0.1 µM.
In the case of `CNc1cc2ncc(-c3cc(NC(=O)c4cncc(C(F)(F)F)c4)ccc3C)cc2cn1` [compound 3] it was less than 0.02 µM.
In the case of `CNc1cc2ncc(-c3cc(NC(=O)c4cccc(N(C)C)c4)ccc3C)cc2cn1` [compound 4] it was less than 0.02 µM; in that of `CNc1cc2ncc(-c3cc(NC(=O)c4cc(C(F)(F)F)c(C)cn4)ccc3C)cc2cn1` [compound 5], 0.02 to 0.1 µM; in that of `CNc1cc2ncc(-c3cc(NC(=O)c4nccc(C(F)(F)F)c4Cl)ccc3C)cc2cn1` [compound 6], less than 0.02 µM.
In the case of `CNc1cc2ncc(-c3cc(NC(=O)C[C@@H]4C[C@H](C(F)(F)F)CCO4)ccc3C)cc2cn1` [compound 7] it was less than 0.02 µM; in that of `CNc1cc2ncc(-c3cc(NC(=O)c4ccnc(C(F)F)c4)ccc3C)cc2cn1` [compound 8], 0.02 to 0.1 µM.
On to `CNc1cc2ncc(-c3cc(NC(=O)c4ccnc(C(C)(F)F)c4)ccc3C)cc2cn1` [compound 9], for which the IC50 is less than 0.02 µM.
In the case of `CNc1cc2ncc(-c3cc(NC(=O)c4ccnc(C(C)(C)F)c4)ccc3C)cc2cn1` [compound 10] it was less than 0.02 µM; in that of `CNc1cc2ncc(-c3cc(NC(=O)c4cc(C(F)F)ccn4)ccc3C)cc2cn1` [compound 11], 0.02 to 0.1 µM; in that of `CNc1cc2ncc(-c3cc(NC(=O)c4cc(C(C)(F)F)ccn4)ccc3C)cc2cn1` [compound 12], 0.02 to 0.1 µM.
As for `CNc1cc2ncc(-c3cc(NC(=O)c4cc(C(C)(C)F)ccn4)ccc3C)cc2cn1` [compound 13], the IC50 fell in the range of 0.1 to 0.5 µM.
In the case of `CNc1cc2ncc(-c3cc(NC(=O)c4cc(C(C)(C)C#N)ccn4)ccc3C)cc2cn1` [compound 14] it was less than 0.02 µM; in that of `CNc1cc2ncc(-c3cc(NC(=O)c4cc(C5(C#N)CCC5)ccn4)ccc3C)cc2cn1` [compound 15], 0.02 to 0.1 µM.
As to `CNc1cc2ncc(-c3cc(NC(=O)c4cc(C5(C#N)CC5)ccn4)ccc3C)cc2cn1` [compound 16], the IC50 is less than 0.02 µM.
In the case of `CNc1cc2ncc(-c3cc(NC(=O)c4ccnc(C5CC(F)(F)C5)c4)ccc3C)cc2cn1` [compound 17] it was less than 0.02 µM.
As for `CNc1cc2ncc(-c3cc(NC(=O)c4ccnc(C5(F)CC5)c4)ccc3C)cc2cn1` [compound 18], the IC50 is less than 0.02 µM.
In the case of `CNc1cc2ncc(-c3cc(NC(=O)c4cccc(N(C)C)c4)cnc3C)cc2cn1` [compound 19], the IC50 is less than 0.02 µM.
In the case of `CNc1cc2ncc(-c3cc(NC(=O)c4cc(C(F)(F)F)ccn4)cnc3C)cc2cn1` [compound 20] it was less than 0.02 µM; in that of `CNc1cc2ncc(-c3cc(NC(=O)c4cncc(C(F)(F)F)c4)cnc3C)cc2cn1` [compound 21], 0.02 to 0.1 µM; in that of `CNc1cc2ncc(-c3cc(NC(=O)c4cc(C(F)F)ccn4)cnc3C)cc2cn1` [compound 22], 0.02 to 0.1 µM.
For the compound `CNc1cc2ncc(-c3cc(NC(=O)c4cc(C(C)(F)F)ccn4)cnc3C)cc2cn1` [compound 23], the IC50 fell in the range of 0.02 to 0.1 µM.
`CNc1cc2ncc(-c3cc(NC(=O)c4ccnc(C(C)(C)F)c4)cnc3C)cc2cn1` [compound 24]: the half-inhibitory concentration (IC50) is less than 0.02 µM.
Regarding `CNc1cc2ncc(-c3cc(NC(=O)c4cc(C(F)(F)F)c(C)cn4)cnc3C)cc2cn1` [compound 25], the 50% inhibitory concentration (IC50) lay in the range of 0.02 to 0.1 µM.
For `CNc1cc2ncc(-c3cc(NC(=O)c4nccc(C(F)(F)F)c4Cl)cnc3C)cc2cn1` [compound 26], the IC50 was 0.02 to 0.1 µM.
In the case of `CNc1cc2ncc(-c3cc(NC(=O)c4ccnc(C(F)(F)F)c4)cnc3C)cc2cn1` [compound 27], the half-inhibitory concentration (IC50) was less than 0.02 µM.
For `CNc1cc2ncc(-c3cc(NC(=O)c4ccnc(C(F)F)c4)cnc3C)cc2cn1` [compound 28], the IC50 lay within 0.1 to 0.5 µM.
In the case of `CNc1cc2ncc(-c3cc(NC(=O)c4ccnc(C(C)(F)F)c4)cnc3C)cc2cn1` [compound 29] it was less than 0.02 µM.
Consider `CNc1cc2ncc(-c3cc(NC(=O)c4cc(C(C)(C)C#N)ccn4)cnc3C)cc2cn1` [compound 30], for which the IC50 was 0.02 to 0.1 µM.
As for `CNc1cc2ncc(-c3cc(NC(=O)c4cc(C5(C#N)CCC5)ccn4)cnc3C)cc2cn1` [compound 31], the figure is 0.02 to 0.1 µM; as for `CNc1cc2ncc(-c3cc(NC(=O)c4cc(C5(C#N)CC5)ccn4)cnc3C)cc2cn1` [compound 32], less than 0.02 µM.
In the case of `CNc1cc2ncc(-c3cc(NC(=O)c4ccnc(C5(F)CC5)c4)cnc3C)cc2cn1` [compound 33] it was less than 0.02 µM; in that of `CNc1cc2ncc(-c3cc(NC(=O)c4ccnc(C5CC(F)(F)C5)c4)cnc3C)cc2cn1` [compound 34], 0.02 to 0.1 µM; in that of `CNc1cc2ncc(-c3cc(NC(=O)C[C@@H]4C[C@H](C(F)(F)F)CCO4)cnc3C)cc2cn1` [compound 35], 0.02 to 0.1 µM.
In the case of `CNc1cc2ncc(-c3cc(NC(=O)C[C@H]4C[C@H](C(F)(F)F)CCO4)cnc3C)cc2cn1` [compound 36] it was 0.1 to 0.5 µM; in that of `CNc1cc2ncc(-c3cc(NC(=O)c4cc(C(C)(C)C#N)ccn4)c(F)cc3Cl)cc2cn1` [compound 37], 0.02 to 0.1 µM.
As to `CNc1cc2ncc(-c3cc(NC(=O)c4cc(C(C)(C)C#N)ccn4)cc(F)c3C)cc2cn1` [compound 38], the IC50 was in the range of 0.02 to 0.1 µM.
In the case of `CNc1cc2ncc(-c3cc(NC(=O)c4cc(C(C)(C)C#N)ccn4)cc(F)c3F)cc2cn1` [compound 39] it was 0.02 to 0.1 µM; in that of `CNc1cc2ncc(-c3cc(NC(=O)c4cc(C(C)(C)C#N)ccn4)ccc3F)cc2cn1` [compound 40], 0.02 to 0.1 µM; in that of `CNc1cc2ncc(-c3cc(NC(=O)c4cc(C(C)(C)C#N)ccn4)ccc3Cl)cc2cn1` [compound 41], 0.02 to 0.1 µM.
In the case of `CNc1cc2ncc(-c3cc(NC(=O)c4cc(C(C)(C)C#N)ccn4)c(F)cc3C)cc2cn1` [compound 42] it was 0.02 to 0.1 µM.
As for `CNc1cc2ncc(-c3cc(NC(=O)c4cc(C(C)(C)C#N)ccn4)c(F)cc3F)cc2cn1` [compound 43], the figure is 0.02 to 0.1 µM.
`CNc1cc2ncc(-c3cc(NC(=O)c4cc(C(C)(C)C#N)ccn4)cc(F)c3Cl)cc2cn1` [compound 44]: the IC50 was in the range of 0.02 to 0.1 µM.
`CNc1cc2ncc(-c3ccc(F)c(NC(=O)c4cc(C(C)(C)C#N)ccn4)c3)cc2cn1` [compound 45]: the IC50 is 0.1 to 0.5 µM.
In the case of `CNc1cc2ncc(-c3cc(F)c(F)c(NC(=O)c4cc(C(C)(C)C#N)ccn4)c3)cc2cn1` [compound 46] it was 0.1 to 0.5 µM; in that of `CNc1cc2ncc(-c3cc(F)cc(NC(=O)c4cc(C(C)(C)C#N)ccn4)c3)cc2cn1` [compound 47], 0.1 to 0.5 µM; in that of `CNc1cc2ncc(-c3cc(NC(=O)c4cc(C(C)(C)C#N)ccn4)cc(Cl)c3C)cc2cn1` [compound 48], greater than 0.5 µM.
As for `CNc1cc2ncc(-c3cc(NC(=O)c4cc(C(C)(C)C#N)ccn4)cnn3)cc2cn1` [compound 49], the IC50 was less than 0.02 µM.
`CNc1cc2ncc(-c3cc(NC(=O)c4cc(C(C)(C)C#N)ccn4)c(Cl)cc3C)cc2cn1` [compound 50]: the IC50 was 0.1 to 0.5 µM.
Turning to `CNc1cc2ncc(-c3cc(NC(=O)c4cc(C(C)(C)C#N)ccn4)c(F)c(F)c3C)cc2cn1` [compound 51], the IC50 was greater than 0.5 µM.

The values above are taken from patent US20260355169A1, “METHODS OF TREATING CANCERS USING ISOQUINOLINE OR 6-AZA-QUINOLINE DERIVATIVES” (Black Diamond Therapeutics, Inc., priority 2022, published 2026).
